Assays:
Experiment in all cases: relative viability (nuclei count vs DMSO), 5 days (fraction); higher = more cells survive
Navitoclax = compound: CC1(C)CCC(c2ccc(Cl)cc2)=C(CN2CCN(c3ccc(C(=O)NS(=O)(=O)c4ccc(N[C@H](CCN5CCOCC5)CSc5ccccc5)c(S(=O)(=O)C(F)(F)F)c4)cc3)CC2)C1 [Navitoclax]
Outline: (§1)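 Lung cancer cell lines in 1536-well plates were kept overnight at 37 °C, then pinned with five library-drug doses (not always all listed) spaced by √10 on vehicle-anchored plates. After 5 days without medium change, cells were fixed, permeabilised and Hoechst-stained in one step, imaged at 4×, and nuclei were counted with MetaXpress. Viability is treated-well nuclei divided by vehicle-well nuclei, taken as the median over plates. Plates passed only with control CV below 25% and at least one doubling.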

C-75 = compound: CCCCCCCC[C@H]1[C@@H](C(=C)C(=O)O1)C(=O)O [C-75]
Outline: as §1

AZD7762 = compound: NC(=O)Nc1cc(-c2cccc(F)c2)sc1C(=O)N[C@H]1CCCNC1 [AZD7762]
Outline: as §1

[1] = compound: O=C(O)c1ccc(-c2c[nH]c3ncc(-c4ccccc4)cc23)cc1C1CCCC1
Outline: as §1

XAV939 = compound: Oc1nc(-c2ccc(C(F)(F)F)cc2)nc2c1CSCC2 [XAV939]
Outline: as §1

Cell Line | relative viability (Navitoclax; 0.005 µM) | relative viability (Navitoclax; 0.01581 µM) | relative viability (Navitoclax; 0.05 µM) | relative viability (Navitoclax; 0.1581 µM) | relative viability (Navitoclax; 0.5 µM) | relative viability (Navitoclax; 0.5 µM, anchor plate) | relative viability (C-75; 0.08 µM) | relative viability (C-75; 0.253 µM) | relative viability (C-75; 0.8 µM) | relative viability (C-75; 2.53 µM) | relative viability (C-75; 8 µM) | relative viability (AZD7762; 0.01 µM) | relative viability (AZD7762; 0.03162 µM) | relative viability (AZD7762; 0.1 µM) | relative viability (AZD7762; 0.2 µM, anchor plate) | relative viability (AZD7762; 0.3162 µM) | relative viability (AZD7762; 1 µM) | relative viability ([1]; 0.04 µM) | relative viability ([1]; 0.1265 µM) | relative viability ([1]; 0.4 µM) | relative viability ([1]; 1.265 µM) | relative viability (XAV939; 0.08 µM) | relative viability (XAV939; 0.253 µM) | relative viability (XAV939; 0.8 µM) | relative viability (XAV939; 2.53 µM)
LOU-NH91 | 1.01 | 1 | 0.921 | 0.865 | 0.513 | 0.718 | 0.959 | 0.977 | 0.862 | 0.778 | 0.969 | 0.941 | 1.1 | 0.975 | 0.784 | 0.894 | 0.775 | 0.934 | 1.14 | 0.975 | 0.915 | 0.979 | 0.868 | 0.954 | 0.953
LU99A | 0.916 | 1.13 | 0.933 | 1.03 | 1.04 | 0.839 | 1 | 0.928 | 0.97 | 0.834 | 0.858 | 0.943 | 1.1 | 0.995 | 0.356 | 0.986 | 0.414 | 0.958 | 0.941 | 0.894 | 0.65 | 0.78 | 0.827 | 0.939 | 1.02
LXF-289 | 0.974 | 0.989 | 0.884 | 0.99 | 0.972 | 0.949 | 0.958 | 0.95 | 0.983 | 0.862 | 1.02 | 0.963 | 1.02 | 1.05 | 1.1 | 0.979 | 1.07 | 0.969 | 0.967 | 0.876 | 0.703 | 1 | 0.94 | 0.998 | 1.03
NCI-H23 | 0.925 | 0.979 | 0.98 | 0.896 | 0.962 | 0.869 | 0.897 | 1.07 | 0.867 | 0.687 | 0.44 | 0.866 | 1.07 | 0.993 | 0.273 | 0.693 | 0.278 | 0.947 | 1.22 | 0.812 | 0.699 | 0.973 | 0.796 | 0.982 | 0.838
NCI-H322M | 1.03 | 1.1 | 0.926 | 0.974 | 1.06 | 1.24 | 0.964 | 1.22 | 0.905 | 0.839 | 0.952 | 0.956 | 1.06 | 0.928 | 0.589 | 0.683 | 0.397 | 1.01 | 1.02 | 0.956 | 0.886 | 1.03 | 0.835 | 0.852 | 0.655
NCI-H358 | 1.01 | 1.2 | 0.961 | 0.985 | 0.977 |  | 0.849 | 0.896 | 0.874 | 0.854 | 0.693 | 1.02 | 1.13 | 0.878 | 0.536 | 0.758 | 0.444 | 0.893 | 1.17 | 0.88 | 0.611 | 0.795 | 0.77 | 0.857 | 0.777
NCI-H441 | 0.981 | 1.07 | 1.06 | 1.11 | 0.986 | 0.701 | 1.14 | 1.09 | 0.907 | 0.764 | 0.957 | 1.11 | 1.2 | 1.05 | 1.14 | 1.34 | 1.03 | 1.01 | 1.08 | 0.817 | 0.6 | 1.18 | 0.962 | 1.1 | 1.04
NCI-H460 | 0.988 | 1.01 | 0.951 | 0.977 | 0.963 | 1.08 | 1.01 | 1.04 | 0.922 | 0.768 | 0.946 | 1.06 | 1 | 1.01 | 0.618 | 0.954 | 0.387 | 1.01 | 1.05 | 0.991 | 0.92 | 0.996 | 0.88 | 0.944 | 0.929
NCI-H520 | 0.997 | 0.925 | 1.14 | 0.99 | 0.94 | 1.12 | 1.02 | 1.21 | 0.952 | 0.615 | 0.825 | 1.09 | 1.01 | 0.972 |  | 0.89 | 0.337 | 1.03 | 0.894 | 1.01 | 0.902 | 1.09 | 0.965 | 0.87 | 0.928
NCI-H522 | 0.841 | 1.12 | 1.03 | 0.912 | 0.978 |  | 0.97 | 0.898 | 1.02 | 0.721 | 0.873 | 1.02 | 1.15 | 0.955 | 0.841 | 0.939 | 0.839 | 0.851 | 1.13 | 0.83 | 0.945 | 0.962 | 0.901 | 0.983 | 0.881
NCI-H596 | 1.07 | 0.942 | 0.711 | 0.964 | 1.04 | 0.936 | 1.01 | 1.14 | 0.909 | 0.852 | 0.997 | 1.07 | 1.08 | 1.08 | 1.1 | 0.929 | 0.891 | 0.927 | 0.982 | 1.02 | 0.971 | 1.1 | 1.02 | 1.11 | 1.03
NCI-H647 | 0.859 | 1.04 | 1.13 | 0.871 | 0.881 | 1.12 | 0.919 | 0.996 | 0.74 | 0.915 | 0.78 | 1.04 | 1.14 | 0.923 | 0.505 | 0.616 | 0.194 | 0.975 | 1.03 | 0.908 | 0.709 | 1.02 | 0.845 | 0.918 | 0.866
NCI-H650 | 0.908 | 0.97 | 0.956 | 0.853 | 1.04 |  | 0.916 | 0.875 | 0.862 | 0.87 | 0.817 | 1.08 | 1.05 | 0.905 | 1.03 | 0.954 | 0.914 | 0.908 | 1.03 | 0.77 | 0.67 | 1.03 | 1.08 | 0.99 | 0.824
